Laboratory results as given in paper PMC11579512, “Deoxybouvardin-glucoside induces apoptosis in non-small cell lung cancer cells by targeting EGFR/MET and AKT signaling pathway” (EXCLI Journal, 2024).

How the values were obtained:
EGFR = target: T1, EGFR (Homo sapiens, UniProt P00533); assay: In vitro ADP-Glo kinase assay, EGFR; assay type: biochemical
T1 construct: purchased Promega
Method: Subsequently, each well was added with ADP-Glo reagent and incubated for another 40 min. After completion of the kinase reaction, each well was added with kinase activity detection reagent and then incubated for 30 min. Liquid was dispensed with I.DOT (Dispendix, Stuttgart, Germany). Luminescence was measured on a Centro LB 960 microplate luminometer (Berthold Technologies).

CDK2 = assay: Immunoblot CDK2 in HCC827 and HCC827GR cells; assay type: cell-based, human; details: for CDK2 protein ratio: relative to DBG 0 nM = 1.00
Method: (§1) HaCaT cells were grown in DMEM, whereas HCC827 and HCC827GR cells were grown in RPMI 1640. All culture media were supplemented with FBS (10 %) and P/S (1 %), and the cells were grown at 37 °C in 5 % CO2.
(§2) Cells were lysed in RIPA buffer, and protein concentration was determined using a Bio-Rad DC Protein Assay kit (Bio-Rad, Hercules, CA, USA). Protein samples from the cell lysates were resolved by sodium dodecyl sulfate-polyacrylamide gel electrophoresis and then transferred onto polyvinylidene fluoride membranes. The membranes were blocked with 3 % or 5 % skim milk and then incubated at 4 °C overnight with the indicated primary antibodies, followed by the corresponding horseradish peroxidase-conjugated secondary antibodies at RT for 2 h. Protein bands were visualized using western blotting luminol reagent solution and ImageQuant LAS 500 (GE Healthcare, Uppsala, Sweden). The density of the bands was quantified using ImageJ software (NIH, Bethesda, MD, USA).

p27 = assay: Immunoblot p27 in HCC827 and HCC827GR cells; assay type: cell-based, human
Method: as §1, §2

HCC827 cells [1] = assay: MTT viability after NAC pretreatment, HCC827; assay type: cell-based, human; details: for cell viability (relative to untreated = 100.00): HCC827
Method: All culture media were supplemented with FBS (10 %) and P/S (1 %), and the cells were grown at 37 °C in 5 % CO2.
The cells were treated with MTT and incubated for 2 h. The supernatants were removed, and the remaining formazan crystals were dissolved in DMSO before absorbance measurement at 570 nm using a Multiscan GO spectrophotometer (Thermo Fisher Scientific, Vantaa, Finland).

Bim = assay: Immunoblot Bim in HCC827 and HCC827GR cells; assay type: cell-based, human; details: for Bim protein Ratio: DBG 0 nM 0.47
Method: as §1, §2

HCC827 cells [2] = assay: Annexin V/7-AAD apoptosis, HCC827; assay type: cell-based, human; set-up: Early apoptosis / Total apopt / Dead / Live: unit not given here; details: for apoptotic cells (annexin V+): 48 h, background 4.78 %; for Dead / Early apoptosis / Late apoptosis/Dead / Total apopt / Live: HCC827
Method: as §1
Apoptosis was measured using a Muse™ Annexin V & Dead Cell Kit (MCH100105, Merck Millipore). The fluorescent signal was analyzed with a Muse™ Cell Analyzer.

T1 sequence (P00533 25-1210): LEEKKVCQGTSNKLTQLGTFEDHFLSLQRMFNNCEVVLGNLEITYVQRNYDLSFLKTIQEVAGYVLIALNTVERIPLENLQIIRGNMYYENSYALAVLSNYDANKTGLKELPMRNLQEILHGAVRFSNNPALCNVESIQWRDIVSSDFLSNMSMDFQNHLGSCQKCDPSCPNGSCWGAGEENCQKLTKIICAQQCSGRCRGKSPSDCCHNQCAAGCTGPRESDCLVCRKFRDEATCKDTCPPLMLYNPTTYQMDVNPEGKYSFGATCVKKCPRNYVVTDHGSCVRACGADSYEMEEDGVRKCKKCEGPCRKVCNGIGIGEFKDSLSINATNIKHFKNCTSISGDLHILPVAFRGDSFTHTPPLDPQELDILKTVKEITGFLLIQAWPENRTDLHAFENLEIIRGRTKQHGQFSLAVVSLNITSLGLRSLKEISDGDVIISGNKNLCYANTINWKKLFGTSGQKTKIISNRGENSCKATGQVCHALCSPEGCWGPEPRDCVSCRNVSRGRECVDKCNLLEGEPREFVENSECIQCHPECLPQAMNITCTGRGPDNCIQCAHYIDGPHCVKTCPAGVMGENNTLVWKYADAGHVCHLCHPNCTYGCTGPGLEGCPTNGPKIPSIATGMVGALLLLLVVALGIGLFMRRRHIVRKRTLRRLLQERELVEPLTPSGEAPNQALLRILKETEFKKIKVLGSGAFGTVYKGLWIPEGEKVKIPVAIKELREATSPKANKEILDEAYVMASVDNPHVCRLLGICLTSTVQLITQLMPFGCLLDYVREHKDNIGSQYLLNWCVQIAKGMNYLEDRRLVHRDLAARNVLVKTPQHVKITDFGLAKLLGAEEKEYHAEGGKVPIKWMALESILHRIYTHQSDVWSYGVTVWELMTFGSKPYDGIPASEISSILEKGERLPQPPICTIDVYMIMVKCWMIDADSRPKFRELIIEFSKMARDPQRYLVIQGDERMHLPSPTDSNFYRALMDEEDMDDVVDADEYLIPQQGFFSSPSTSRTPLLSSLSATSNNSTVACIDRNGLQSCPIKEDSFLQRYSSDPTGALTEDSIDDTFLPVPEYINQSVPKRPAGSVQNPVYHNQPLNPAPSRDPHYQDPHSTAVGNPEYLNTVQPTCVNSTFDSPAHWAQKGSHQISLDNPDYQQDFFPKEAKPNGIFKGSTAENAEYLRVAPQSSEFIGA

IC50 (EGFR; ADP-Glo, EGFR 4 ng, RT, 60 min, luminescence, n=3): 7.23 nM
kinase activity, in words (EGFR; DBG 3, 6, 12 nM): significantly inhibited
Structure (SMILES): COc1ccc(C[C@H]2C(=O)N[C@@H](C)C(=O)N(C)[C@H]3Cc4ccc(cc4)Oc4cc(ccc4O[C@@H]4O[C@H](CO)[C@@H](O)[C@H](O)[C@H]4O)C[C@@H](C(=O)N[C@H](C)C(=O)N[C@@H](C)C(=O)N2C)N(C)C3=O)cc1 [DBG, deoxybouvardin glucoside]
level of CDKs (CDK2) (CDK2; DBG 3, 6, 12 nM, 48 h): significantly decreased
CDK2 protein/actin (CDK2; HCC827, DBG 3 nM, DBG 0 nM 0.56): 0.43
CDK2 protein ratio (CDK2; HCC827, DBG 3 nM): 0.77
CDK2 protein/actin (CDK2; HCC827, DBG 6 nM, DBG 0 nM 0.56): 0.20
CDK2 protein ratio (CDK2; HCC827, DBG 6 nM): 0.36
CDK2 protein/actin (CDK2; HCC827, DBG 12 nM, DBG 0 nM 0.56): 0.17
CDK2 protein ratio (CDK2; HCC827, DBG 12 nM): 0.30
CDK2 protein/actin (CDK2; HCC827GR, DBG 3 nM, DBG 0 nM 0.58): 0.44
CDK2 protein ratio (CDK2; HCC827GR, DBG 3 nM): 0.76
CDK2 protein/actin (CDK2; HCC827GR, DBG 6 nM, DBG 0 nM 0.58): 0.36
CDK2 protein ratio (CDK2; HCC827GR, DBG 6 nM): 0.62
CDK2 protein/actin (CDK2; HCC827GR, DBG 12 nM, DBG 0 nM 0.58): 0.25
CDK2 protein ratio (CDK2; HCC827GR, DBG 12 nM): 0.44
level of p27 (p27; DBG, 48 h): increasing p27
p27 protein/actin (p27; HCC827, DBG 3 nM, DBG 0 nM 0.14): 0.14
p27 protein ratio (p27; HCC827, DBG 3 nM, relative to DBG 12 nM = 1.00, DBG 0 nM 0.34): 0.33
p27 protein/actin (p27; HCC827, DBG 6 nM, DBG 0 nM 0.14): 0.40
p27 protein ratio (p27; HCC827, DBG 6 nM, relative to DBG 12 nM = 1.00, DBG 0 nM 0.34): 0.96
p27 protein ratio (p27; HCC827, DBG 12 nM (set to 1.00), DBG 0 nM 0.34): 1.00
p27 protein/actin (p27; HCC827, DBG 12 nM, DBG 0 nM 0.14): 0.42
p27 protein/actin (p27; HCC827GR, DBG 3 nM, DBG 0 nM 0.06): 0.09
p27 protein ratio (p27; HCC827GR, DBG 3 nM, relative to DBG 12 nM = 1.00, DBG 0 nM 0.08): 0.11
p27 protein/actin (p27; HCC827GR, DBG 6 nM, DBG 0 nM 0.06): 0.69
p27 protein ratio (p27; HCC827GR, DBG 6 nM, relative to DBG 12 nM = 1.00, DBG 0 nM 0.08): 0.90
p27 protein ratio (p27; HCC827GR, DBG 12 nM (set to 1.00), DBG 0 nM 0.08): 1.00
p27 protein/actin (p27; HCC827GR, DBG 12 nM, DBG 0 nM 0.06): 0.77
cell viability (relative to untreated = 100.00) (HCC827 cells [1]; DBG 12 nM, mean of 3): 45.66
cell viability (relative to untreated = 100.00) (HCC827 cells [1]; DBG 12 nM, replicate 1): 44.99
cell viability (relative to untreated = 100.00) (HCC827 cells [1]; DBG 12 nM, replicate 2): 46.50
cell viability (relative to untreated = 100.00) (HCC827 cells [1]; DBG 12 nM, replicate 3): 45.48
cell viability (relative to untreated = 100.00) (HCC827 cells [1]; NAC 4 mM + DBG 12 nM, mean of 3): 94.90
cell viability (relative to untreated = 100.00) (HCC827 cells [1]; NAC 4 mM + DBG 12 nM, replicate 1): 97.37
cell viability (relative to untreated = 100.00) (HCC827 cells [1]; NAC 4 mM + DBG 12 nM, replicate 2): 92.86
cell viability (relative to untreated = 100.00) (HCC827 cells [1]; NAC 4 mM + DBG 12 nM, replicate 3): 94.46
anticancer activity of DBG after NAC pretreatment (HCC827 cells [1]; NAC 4 mM, 3 h, DBG 48 h): decreased
cytotoxicity after NAC pretreatment (HCC827 cells [1]; NAC 4 mM, DBG 12 nM): a little, if any, cytotoxicity only at 12 nM
Bim protein/actin (Bim; HCC827, DBG 3 nM, DBG 0 nM 0.53): 0.53
Bim protein Ratio (Bim; HCC827, DBG 3 nM, relative to DBG 12 nM = 1.00): 0.48
Bim protein/actin (Bim; HCC827, DBG 6 nM, DBG 0 nM 0.53): 0.73
Bim protein Ratio (Bim; HCC827, DBG 6 nM, relative to DBG 12 nM = 1.00): 0.65
Bim protein Ratio (Bim; HCC827, DBG 12 nM (reference of the ratio, 1.00)): 1.00
Bim protein/actin (Bim; HCC827, DBG 12 nM, DBG 0 nM 0.53): 1.12
Bim protein/actin (Bim; HCC827GR, DBG 3 nM, DBG 0 nM 0.15): 0.23
level of Bim (Bim; NSCLC cells, DBG): increased
apoptotic cells (annexin V+) (HCC827 cells [2]; DBG 3 nM): 9.60%
apoptotic cells (annexin V+) (HCC827 cells [2]; DBG 6 nM): 15.30%
apoptotic cells (annexin V+) (HCC827 cells [2]; DBG 12 nM): 44.90%
Dead (HCC827 cells [2]; DBG 3 nM, mean of 3 samples, untreated 1.21): 1.72
Early apoptosis (HCC827 cells [2]; DBG 3 nM, mean of 3 samples, untreated 1.30): 3.33
Late apoptosis/Dead (HCC827 cells [2]; DBG 3 nM, mean of 3 samples, untreated 3.48): 6.27
Total apopt (HCC827 cells [2]; DBG 3 nM, mean of 3 samples, untreated 4.78): 9.60
Live (HCC827 cells [2]; DBG 3 nM, mean of 3 samples, untreated 94.01): 88.68
Dead (HCC827 cells [2]; DBG 3 nM, replicate 1): 1.90
Early apoptosis (HCC827 cells [2]; DBG 3 nM, replicate 1): 3.35
Late apoptosis/Dead (HCC827 cells [2]; DBG 3 nM, replicate 1): 5.90
Live (HCC827 cells [2]; DBG 3 nM, replicate 1): 88.85
Total apopt (HCC827 cells [2]; DBG 3 nM, replicate 1): 9.25
Dead (HCC827 cells [2]; DBG 3 nM, replicate 2): 1.75
Early apoptosis (HCC827 cells [2]; DBG 3 nM, replicate 2): 3.40
Late apoptosis/Dead (HCC827 cells [2]; DBG 3 nM, replicate 2): 5.90
Live (HCC827 cells [2]; DBG 3 nM, replicate 2): 88.95
Total apopt (HCC827 cells [2]; DBG 3 nM, replicate 2): 9.30
Dead (HCC827 cells [2]; DBG 3 nM, replicate 3): 1.50
Early apoptosis (HCC827 cells [2]; DBG 3 nM, replicate 3): 3.25
Late apoptosis/Dead (HCC827 cells [2]; DBG 3 nM, replicate 3): 7.00
Live (HCC827 cells [2]; DBG 3 nM, replicate 3): 88.25
Total apopt (HCC827 cells [2]; DBG 3 nM, replicate 3): 10.25
Dead (HCC827 cells [2]; DBG 6 nM, mean of 3 samples, untreated 1.21): 1.75
Early apoptosis (HCC827 cells [2]; DBG 6 nM, mean of 3 samples, untreated 1.30): 6.37
Late apoptosis/Dead (HCC827 cells [2]; DBG 6 nM, mean of 3 samples, untreated 3.48): 8.93
Total apopt (HCC827 cells [2]; DBG 6 nM, mean of 3 samples, untreated 4.78): 15.30
Live (HCC827 cells [2]; DBG 6 nM, mean of 3 samples, untreated 94.01): 82.95
Dead (HCC827 cells [2]; DBG 6 nM, replicate 1): 1.70
Early apoptosis (HCC827 cells [2]; DBG 6 nM, replicate 1): 6.40
Late apoptosis/Dead (HCC827 cells [2]; DBG 6 nM, replicate 1): 9.25
Live (HCC827 cells [2]; DBG 6 nM, replicate 1): 82.65
Total apopt (HCC827 cells [2]; DBG 6 nM, replicate 1): 15.65
Dead (HCC827 cells [2]; DBG 6 nM, replicate 2): 1.90
Early apoptosis (HCC827 cells [2]; DBG 6 nM, replicate 2): 6.75
Late apoptosis/Dead (HCC827 cells [2]; DBG 6 nM, replicate 2): 8.15
Live (HCC827 cells [2]; DBG 6 nM, replicate 2): 83.20
Total apopt (HCC827 cells [2]; DBG 6 nM, replicate 2): 14.90
Dead (HCC827 cells [2]; DBG 6 nM, replicate 3): 1.65
Early apoptosis (HCC827 cells [2]; DBG 6 nM, replicate 3): 5.95
Late apoptosis/Dead (HCC827 cells [2]; DBG 6 nM, replicate 3): 9.40
Live (HCC827 cells [2]; DBG 6 nM, replicate 3): 83.00
Total apopt (HCC827 cells [2]; DBG 6 nM, replicate 3): 15.35
Dead (HCC827 cells [2]; DBG 12 nM, mean of 3 samples, untreated 1.21): 4.72
Early apoptosis (HCC827 cells [2]; DBG 12 nM, mean of 3 samples, untreated 1.30): 19.42
Late apoptosis/Dead (HCC827 cells [2]; DBG 12 nM, mean of 3 samples, untreated 3.48): 25.48
Total apopt (HCC827 cells [2]; DBG 12 nM, mean of 3 samples, untreated 4.78): 44.90
Live (HCC827 cells [2]; DBG 12 nM, mean of 3 samples, untreated 94.01): 50.38
Dead (HCC827 cells [2]; DBG 12 nM, replicate 1): 4.65
Early apoptosis (HCC827 cells [2]; DBG 12 nM, replicate 1): 19.00
Late apoptosis/Dead (HCC827 cells [2]; DBG 12 nM, replicate 1): 25.05
Live (HCC827 cells [2]; DBG 12 nM, replicate 1): 51.30
Total apopt (HCC827 cells [2]; DBG 12 nM, replicate 1): 44.05
Dead (HCC827 cells [2]; DBG 12 nM, replicate 2): 4.15
Early apoptosis (HCC827 cells [2]; DBG 12 nM, replicate 2): 19.25
Late apoptosis/Dead (HCC827 cells [2]; DBG 12 nM, replicate 2): 25.30
Live (HCC827 cells [2]; DBG 12 nM, replicate 2): 51.30
Total apopt (HCC827 cells [2]; DBG 12 nM, replicate 2): 44.55
Dead (HCC827 cells [2]; DBG 12 nM, replicate 3): 5.35
Early apoptosis (HCC827 cells [2]; DBG 12 nM, replicate 3): 20.00
Late apoptosis/Dead (HCC827 cells [2]; DBG 12 nM, replicate 3): 26.10
Live (HCC827 cells [2]; DBG 12 nM, replicate 3): 48.55
Total apopt (HCC827 cells [2]; DBG 12 nM, replicate 3): 46.10
